Results as given in article PMC10165273, “Itch receptor MRGPRX4 interacts with the receptor activity–modifying proteins” (The Journal of Biological Chemistry, 2023).
Several values for one entry are separate records, joined by “and”; a condition that tells them apart may be missing. Equal entries are not always repeated. Where two headings read alike, the source gives them in different places.

Biological target: T1, MRGPRX4 (Homo sapiens, UniProt Q96LA9)
T1 construct: expressed in transfected cells; host or cells: HEK293T
T1 sequence (Q96LA9 whole entry): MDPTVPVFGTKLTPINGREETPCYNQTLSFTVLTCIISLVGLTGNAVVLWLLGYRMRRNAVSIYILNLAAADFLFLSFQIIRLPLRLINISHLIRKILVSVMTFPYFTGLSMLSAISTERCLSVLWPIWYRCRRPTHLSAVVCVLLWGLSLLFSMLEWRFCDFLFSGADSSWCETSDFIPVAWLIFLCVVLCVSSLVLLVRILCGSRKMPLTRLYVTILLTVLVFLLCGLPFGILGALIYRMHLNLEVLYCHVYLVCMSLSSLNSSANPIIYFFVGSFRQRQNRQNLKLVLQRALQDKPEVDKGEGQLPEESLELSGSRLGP
Assay: IP1 accumulation HTRF assay, MRGPRX4
Type: cell-based
Design: key to IP1 Basal / IP1 accumulation with YM (Figure 1c) / response to agonist, MRGPRX4 / IP1 accumulation: % IP1: unstimulated mock-transfected = 0%, fully stimulated MRGPRX4 = 100%
Conditions: for IP1 accumulation: MRGPRX4 alone, Fig S3d-f
Method: HEK293T cells were transfected with 1 pg/cell of MRGPRX4 DNA, and the amount of DNA was kept constant at 2 pg/cell with pcDNA3.1(+) empty vector, unless otherwise specified. Twenty four hours after transfection, IP1 assay was performed as previously described ([51]). When applicable, cells were treated with 1 μM YM254890 (YM) or different concentrations of U73122 for 1 h prior to addition of agonist or buffer. After incubation for 2 h, HTRF reagents and IP1 calibration standards were added and incubated for 2 h in the dark at room temperature. Time-resolved fluorescence signals were read on the BioTek Synergy NEO-TRF Hybrid multi-mode reader (BioTek Instruments). All data were carried out in three independent experiments with three technical replicate each.
For characterization of the Tet-On Nluc-HT7-MRGPRX4-GFP10-1D4 construct, HEK293T cells were transfected as previously described with some modifications. Dox dose-response of NLuc-HT7-MRGPRX4-GFP10-1D4 DNA titration was assayed by transfecting HEK293T cells with either 1 or 2 pg/cell of NLuc-HT7-MRGPRX4-GFP10-1D4 construct. Receptor expression was induced 4 h after transfection with addition of different concentrations of dox for 20 h. For the RAMP DNA titration assay, cells were cotransfected with a constant amount of 1 pg/cell of NLuc-HT7-MRGPRX4-GFP10-1D4 DNA and 1, 0.75, 0.5, or 0 pg/cell of each HA-RAMP-OLLAS with the homogenous transfection method. Four hours after transfection, receptor expression was induced with addition of 1000 ng/ml dox. Twenty hours after induction, IP1 assay was performed.
Data reduction, standard calibration, and transformation of HTRF data were performed as previously described ([51]). Normalized IP1 values were calculated relative to the unstimulated mock-transfected cells (set to 0%) and fully stimulated MRGPRX4 (alone if applicable) (set to 100%).

C[C@H](CCC(=O)O)[C@H]1CC[C@H]2[C@@H]3CC[C@@H]4C[C@H](O)CC[C@]4(C)[C@H]3C[C@H](O)[C@]12C [DCA, deoxycholic acid]
efficacy (Figure 4a bottom, MRGPRX4 alone (reference = 100), individual replicates): 100
Emax (Figure 4a bottom, MRGPRX4 alone (reference = 100), individual replicates, read-out: efficacy): 100%
response to agonist, MRGPRX4 (Figure 4c-f, agonist 100µM, MRGPRX4 alone (reference = 100)): 100
normalized IP1 accumulation (HA-MRGX4-1D4, log [agonist] (M) -4): 58.1095 and 47.3107
normalized IP1 accumulation (HA-MRGX4-1D4, log [agonist] (M) -4.69897): 33.2327 and 34.6328
normalized IP1 accumulation (HA-MRGX4-1D4, log [agonist] (M) -5.39794): 18.9895
normalized IP1 accumulation (HA-MRGX4-1D4, log [agonist] (M) -6.09691): 13.2757 and 15.4467
normalized IP1 accumulation (HA-MRGX4-1D4, log [agonist] (M) -6.79588): 13.3916 and 13.9578
normalized IP1 accumulation (HA-MRGX4-1D4, log [agonist] (M) -7.49485): 12.579 and 14.4894
Emax (HEK-293T, MRGPRX4 (Fig. 1A), HEK293T, normalized to 100 μM nateglinide, read-out: IP1 Emax): 77.9%
Emax (HEK-293T, MRGPRX4 (Fig. 1A), HEK293T, normalized to 100 μM nateglinide, read-out: IP1 span): 62.9%
Emax (MRGPRX4 0.125 pg DNA/cell, individual experiments, read-out: efficacy (Figure 1b bottom)): 47.9%
Emax (MRGPRX4 0.25 pg DNA/cell, individual experiments, read-out: efficacy (Figure 1b bottom)): 45%
Emax (MRGPRX4 0.5 pg DNA/cell, individual experiments, read-out: efficacy (Figure 1b bottom)): 58.3%
Emax (MRGPRX4 1 pg DNA/cell, individual experiments, read-out: efficacy (Figure 1b bottom)): 70.6%
Emax (MRGPRX4 2 pg DNA/cell, individual experiments, read-out: efficacy (Figure 1b bottom)): 80.7%
IP1 Basal (MRGPRX4 (Fig. 1A), HEK293T, normalized to 100 μM nateglinide): 15.03
IP1 Basal (MRGPRX4 DNA 0.25 pg/cell (Fig. S1)): 4.249
Emax (MRGPRX4 DNA 0.25 pg/cell (Fig. S1), read-out: IP1 Emax): 54.2%
Emax (MRGPRX4 DNA 0.25 pg/cell (Fig. S1), read-out: IP1 span): 50%
IP1 Basal (MRGPRX4 DNA 0.5 pg/cell (Fig. S1)): 6.783
Emax (MRGPRX4 DNA 0.5 pg/cell (Fig. S1), read-out: IP1 Emax): 68%
Emax (MRGPRX4 DNA 0.5 pg/cell (Fig. S1), read-out: IP1 span): 61.2%
IP1 Basal (MRGPRX4 DNA 1 pg/cell (Fig. S1)): 9.471
Emax (MRGPRX4 DNA 1 pg/cell (Fig. S1), read-out: IP1 Emax): 73.8%
Emax (MRGPRX4 DNA 1 pg/cell (Fig. S1), read-out: IP1 span): 64.3%
IP1 Basal (MRGPRX4 DNA 2 pg/cell (Fig. S1)): 12.99
Emax (MRGPRX4 DNA 2 pg/cell (Fig. S1), read-out: IP1 Emax): 87.2%
Emax (MRGPRX4 DNA 2 pg/cell (Fig. S1), read-out: IP1 span): 74.2%
Emax (MRGPRX4 DNA […] (Fig. S1), read-out: IP1 Emax): 50.3%
Emax (MRGPRX4 DNA […] (Fig. S1), read-out: IP1 span): 47%
IP1 accumulation (log [DCA] (M) -4.69897): 57.1868 and 75.4734
IP1 accumulation (log [DCA] (M) -5.39794): 30.3386
IP1 accumulation (log [DCA] (M) -6.09691): 23.4514 and 33.1858
IP1 accumulation (log [DCA] (M) -6.79588): 21.3567 and 30.9234
IP1 accumulation (log [DCA] (M) -7.49485): 19.4869 and 27.2792
normalized IP1 accumulation (SP-FLAG-Nluc-HT7-MRGX4_Tet-GFP10-1D4, log [agonist] (M) -4.09691): 41.457 and 40.0931
normalized IP1 accumulation (SP-FLAG-Nluc-HT7-MRGX4_Tet-GFP10-1D4, log [agonist] (M) -4.79588): 23.5519 and 24.4487
normalized IP1 accumulation (SP-FLAG-Nluc-HT7-MRGX4_Tet-GFP10-1D4, log [agonist] (M) -5.49485): 12.8144 and 13.3904
normalized IP1 accumulation (SP-FLAG-Nluc-HT7-MRGX4_Tet-GFP10-1D4, log [agonist] (M) -6.19382): 11.7164 and 10.0407
normalized IP1 accumulation (SP-FLAG-Nluc-HT7-MRGX4_Tet-GFP10-1D4, log [agonist] (M) -6.89279): 9.829 and 11.4364
normalized IP1 accumulation (SP-FLAG-Nluc-HT7-MRGX4_Tet-GFP10-1D4, log [agonist] (M) -7.59176): 10.7139 and 10.5391
normalized IP1 accumulation (SP-FLAG-Nluc-HT7-MRGX4_Tet-GFP10-1D4 no dox, log [agonist] (M) -4.09691): 9.638 and 9.7
normalized IP1 accumulation (SP-FLAG-Nluc-HT7-MRGX4_Tet-GFP10-1D4 no dox, log [agonist] (M) -4.79588): 7.503 and 8.174
normalized IP1 accumulation (SP-FLAG-Nluc-HT7-MRGX4_Tet-GFP10-1D4 no dox, log [agonist] (M) -5.49485): 9.457 and 8.365
normalized IP1 accumulation (SP-FLAG-Nluc-HT7-MRGX4_Tet-GFP10-1D4 no dox, log [agonist] (M) -6.19382): 8.686 and 8.091
normalized IP1 accumulation (SP-FLAG-Nluc-HT7-MRGX4_Tet-GFP10-1D4 no dox, log [agonist] (M) -6.89279): 8.749 and 8.325
normalized IP1 accumulation (SP-FLAG-Nluc-HT7-MRGX4_Tet-GFP10-1D4 no dox, log [agonist] (M) -7.59176): 8.705 and 9.2498
normalized IP1 accumulation (SP-Flag-MRGX4-1D4, log [agonist] (M) -4): 68.6268 and 66.4742
normalized IP1 accumulation (SP-Flag-MRGX4-1D4, log [agonist] (M) -4.69897): 30.127 and 33.8796
normalized IP1 accumulation (SP-Flag-MRGX4-1D4, log [agonist] (M) -5.39794): 14.3992 and 13.1143
normalized IP1 accumulation (SP-Flag-MRGX4-1D4, log [agonist] (M) -6.09691): 8.224 and 9.664
normalized IP1 accumulation (SP-Flag-MRGX4-1D4, log [agonist] (M) -6.79588): 7.099 and 7.695
normalized IP1 accumulation (SP-Flag-MRGX4-1D4, log [agonist] (M) -7.49485): 6.315 and 7.555
normalized IP1 accumulation (SP-Flag-MRGX4-GFP10-1D4, log [agonist] (M) -4): 68.4519 and 65.3389
normalized IP1 accumulation (SP-Flag-MRGX4-GFP10-1D4, log [agonist] (M) -4.69897): 36.0479 and 38.0394
normalized IP1 accumulation (SP-Flag-MRGX4-GFP10-1D4, log [agonist] (M) -6.09691): 10.072 and 10.3886
normalized IP1 accumulation (SP-Flag-MRGX4-GFP10-1D4, log [agonist] (M) -6.79588): 8.9869 and 9.025
normalized IP1 accumulation (SP-Flag-MRGX4-GFP10-1D4, log [agonist] (M) -7.49485): 7.933 and 9.527
IP1 Basal (construct FLAG-MRGPRX4-1D4 (Fig. S4A-F)): 7.469
Emax (construct FLAG-MRGPRX4-1D4 (Fig. S4A-F), read-out: IP1 Emax): 96.3%
Emax (construct FLAG-MRGPRX4-1D4 (Fig. S4A-F), read-out: IP1 span): 88.8%
IP1 Basal (construct FLAG-MRGPRX4-GFP10-1D4 (Fig. S4A-F)): 8.165
Emax (construct FLAG-MRGPRX4-GFP10-1D4 (Fig. S4A-F), read-out: IP1 Emax): 88.5%
Emax (construct FLAG-MRGPRX4-GFP10-1D4 (Fig. S4A-F), read-out: IP1 span): 80.4%
IP1 Basal (construct FLAG-NLuc-HT7-MRGPRX4-GFP10-1D4 (Fig. S4A-F)): 10.56
Emax (construct FLAG-NLuc-HT7-MRGPRX4-GFP10-1D4 (Fig. S4A-F), read-out: IP1 Emax): 55%
Emax (construct FLAG-NLuc-HT7-MRGPRX4-GFP10-1D4 (Fig. S4A-F), read-out: IP1 span): 44.5%
IP1 Basal (construct HA-MRGPRX4-1D4 (Fig. S4A-F)): 12.52
Emax (construct HA-MRGPRX4-1D4 (Fig. S4A-F), read-out: IP1 Emax): 64.7%
Emax (construct HA-MRGPRX4-1D4 (Fig. S4A-F), read-out: IP1 span): 52.2%
